Blank lines part the entries; values can stand above or below the compound they belong to.
Experiments:
[1] = tested on: all microorganisms; experiment: Preservative efficacy test (PET), overall compliance with European Pharmacopeia / USP criteria; assay type: cell-based
Protocol: (§2) In preservative efficacy assays, a short study was performed whereby two microorganisms were used to assess the microbial efficacy of the prepared formulations (Staphylococcus aureus and E. coli). Samples were tested at t=0 (bulk) and t=1 month after storage at 25° C.
A multivariate robustness study was carried out to investigate the impact of m-cresol content, sodium phosphate concentration, and m-cresol content on the preservative efficacy of the 5 mg/mL multi-dose formulation. […] A total of 20 bulk formulations were prepared and tested in accordance with the European Pharmacopeia Edition 10.0 Section 5.1.3 and the United States Pharmacopeia 42 <51>.

[2] = Protocol: The solubility and pH stability of the GLP-1/glucagon agonist peptide MEDI0382 (FIG. 1) were studied. In particular, solubility was studied in different types of buffers, different buffer ionic strengths, pure water, and organic solvents. The aqueous pH solubility of MEDI0382 was also assessed. The chemical stability (as measured by reverse phase ultra performance liquid chromatography (RP-UPLC)) and secondary structure (as measured by Fourier transform infrared spectroscopy (FTIR) and UV circular dichoism spectroscopy (CD)) were also assessed at various pHs. Furthermore, the effect of pH on the kinetics of MEDI0382 aggregation were also assessed in a thioflavin T binding (ThT) assay. […]
The six selected formulations were used in a 1-month stability study at refrigerated (2-8° C.) and stressed conditions (37° C.). Samples were assessed at time zero, 2 weeks, and 4 weeks by RP-UPLC, DLS, Visual Inspection, Micro-Flow Imaging (MFI), Size Exclusion Chromatography-Multi-Angle Light Scattering (SEC-MALS). […]
(§1) The fiber formation was again evaluated using a ThT assay. […] Chemical degradation associated with these excipients was also monitored for one month for samples kept at 5° C. and 40° C. using an RP-UPLC assay. […] Particle formation associated with these excipients was also monitored by visual inspection after shaking stress (800 rpm for 4 hours). […]

[3] = Container compatibility: syringe stability and adsorption to containers; assay type: physicochemical; conditions: 50 mM Phosphate buffer, 1.85% (w/v) propylene glycol, pH 7.4
Protocol: The chemical stability of MEDI0382 was tested in 50 mM Phosphate buffer, 1.85% (w/v) of propylene glycol, pH 7.4.
This MEDI0382 formulation was stable in BD Plastipak syringes for at least 4 hours at room temperature.
However, an adsorption of the peptide to the containers at low levels of dosing (below 0.1 mg/ml) was identified. This MEDI0382 formulation was ruled out because the low doses of drug likely to be required to achieve a pharmacological (agonistic) effect could not feasibly be delivered in this way.

[4] = Secondary structure by FTIR and UV circular dichroism; assay type: physicochemical
[5] = remark: listed apart in the source
Protocol: The solubility and pH stability of the GLP-1/glucagon agonist peptide MEDI0382 (FIG. 1) were studied. In particular, solubility was studied in different types of buffers, different buffer ionic strengths, pure water, and organic solvents. The aqueous pH solubility of MEDI0382 was also assessed. The chemical stability (as measured by reverse phase ultra performance liquid chromatography (RP-UPLC)) and secondary structure (as measured by Fourier transform infrared spectroscopy (FTIR) and UV circular dichoism spectroscopy (CD)) were also assessed at various pHs. Furthermore, the effect of pH on the kinetics of MEDI0382 aggregation were also assessed in a thioflavin T binding (ThT) assay.
The effect of excipients on fiber formation was analyzed by evaluating whether or not amino acids and divalent ions could prevent fiber formation at pH 7.5. […] The fiber formation was evaluated using a Thioflavin T binding assay (ThT) assay.
as §1

[6] = MEDI0382 solubility studies (buffers, ionic strength, water, organic solvents, aqueous pH); assay type: physicochemical
Protocol: The aqueous pH solubility of MEDI0382 was also assessed.

[7] = Dynamic Light Scattering (DLS): particle size, Z-average, hydrodynamic diameter; assay type: physicochemical; conditions: 50 mM PB pH 7.5, 1.85% w/v PG, 0.03% v/v PS80; one month
Protocol: The principles for formulation ranking used in Table 3 were the loss of peptide purity (main area peak/total peak area) at accelerated conditions (purity loss≤3% per 1 week at 40° C., low risk; purity loss>5% week at 40° C.=high risk) and physical stability at 40 or 5° C. (Z-average<10 nm=low risk, >10 nm=medium risk; >100 nm=high risk).
The six selected formulations were used in a 1-month stability study at refrigerated (2-8° C.) and stressed conditions (37° C.). Samples were assessed at time zero, 2 weeks, and 4 weeks by RP-UPLC, DLS, Visual Inspection, Micro-Flow Imaging (MFI), Size Exclusion Chromatography-Multi-Angle Light Scattering (SEC-MALS).
Purity (RP-UPLC), aggregation (DLS), peptide concentration (A280), High order structure (SEC-MALS)(multiangle (laser) light scattering), Sub-visible particles (MFI), Osmolarity, Conformational stability (Circular dichroism (CD) spectroscopy) and pH tests were conducted. The following temperatures were tested: 5° C., 15° C.; 25° C., 40° C. and −80° C. The following time points were tested: 0, 2 weeks, 1, 2, 3, 6, 9, 12, 24 and 36 months.
In another set of experiments, the impact of sorbitol (0-250 mM), propylene glycol (0-2%), and phenol (0-2%) in a pH range 7-8.2 on the physical stability of MEDI0382 was explored. Physical stability was monitored using DLS (DynaPro plate reader, Wyatt) and the ThT assay.

[8] = Visual inspection: gel formation, particles, shaking and freeze/thaw stress; assay type: physicochemical
Protocol: Samples were stressed by temperature and freeze/thaw and analyzed for purity, aggregation, visual inspection, and for the presence of sub-visible particles.
In the freeze/thaw studies, the formulation was tested in the presence or absence of polysorbate 80 (0.3% v/v) with either 2 mg/ml or 5 mg/ml protein. Fresh solutions (glass vials, Type I, transparent) were frozen by three freeze/thaw cycles. After the thawing, samples were kept at 5 and 25° C. for up to 3 weeks and analysed by visual inspection. Samples without freezing were run in parallel as control. In a second study, the container closer compatibility was assessed by using Nalgene HDPE (more suitable for toxicological studies). In this case, only formulation at 5 mg/mL was analysed.
In these experiments, formulations with 0.03% polysorbate 80 were compared to formulations without polysorbate 80. The samples were incubated for 7 days at 50° C. […] All of the samples were then incubated for another 12 days.

[9] = tested on: Staphylococcus aureus; experiment: Preservative efficacy test (PET; Ph. Eur. / USP), S. aureus; conditions: 5.5 mg/mL MEDI0382 multi-dose formulation
Protocol: as §2
Preservative efficacy testing (PET) was also performed on 2 and 5 mg/ml MEDI0382 formulations containing 20 mM sodium phosphate buffer, 220 mM sorbitol, and m-Cresol (at the concentrations indicated in Table 35) at pH.
A total of 20 bulk formulations were prepared and tested in accordance with the European Pharmacopeia Edition 10.0 Section 5.1.3 and the United States Pharmacopeia 42 <51>.

SMILES: Cc1cccc(O)c1 [Hedinger m-Cresol, m-Cresol]
European criteria passed (PET) ([1]; highest concentrations tested, S. aureus and E. coli): passed the more stringent European (“A”) criteria

pH at which both physical and chemical stability are improved [2]: ≥ 8 | concentration at which adsorption of the peptide to the containers was identified [3]: below 0.1 mg/ml | time stable in BD Plastipak syringes ([3]; room temperature): at least 4 hours | optimal pH for physical stability [5]: > 7.8 | Organic solvent solubility [6]: Low | Physical state [6]: Amorphous powder, hygroscopic, sensitive | Preferable buffers solubility [6]: Sodium phosphate and TRIS | solubility ([6]; buffers of different ionic strengths, read-out: Ranges of ionic strength solubility): ≥ 25 mM | Aqueous solution pH solubility ([6]; pH 1 to 3 and 6 to 13): increases at pH 1 to 3 and 6 to 13 | Aqueous solution pH solubility ([6]; pH 4.1 to 4.5): Insoluble at pH 4.1 to 4.5, solubility | gel formation ([8]; 0.03% polysorbate 80, pH 6.9, 7 days at 50° C.): turned into a solid gel | gel formation ([8]; 0.03% polysorbate 80, pH 8.3, 7 days at 50° C.): did not | visual inspection ([8]; 50 mM PB pH 7.5, 1.85% w/v PG, 0.03% v/v PS80, 2-month storage): gel-like-appearance | gel formation ([8]; without polysorbate 80, pH 6.9, another 12 days): turned into a soft gel
SMILES: CCCCCCCCCCCCCCCC(=O)N[C@@H](CCC(=O)NCCCC[C@H](NC(=O)[C@H](CC(=O)O)NC(=O)[C@H](CO)NC(=O)[C@@H](NC(=O)[C@H](Cc1ccccc1)NC(=O)[C@@H](NC(=O)CNC(=O)[C@H](CCC(N)=O)NC(=O)[C@H](CO)NC(=O)[C@@H](N)Cc1c[nH]cn1)[C@@H](C)O)[C@@H](C)O)C(=O)N[C@@H](CO)C(=O)N[C@@H](CCC(=O)O)C(=O)N[C@@H](Cc1ccc(O)cc1)C(=O)N[C@@H](CC(C)C)C(=O)N[C@@H](CC(=O)O)C(=O)N[C@@H](CO)C(=O)N[C@@H](CCC(=O)O)C(=O)N[C@@H](CCCNC(=N)N)C(=O)N[C@@H](C)C(=O)N[C@@H](CCCNC(=N)N)C(=O)N[C@@H](CC(=O)O)C(=O)N[C@@H](Cc1ccccc1)C(=O)N[C@H](C(=O)N[C@@H](C)C(=O)N[C@@H](Cc1c[nH]c2ccccc12)C(=O)N[C@@H](CC(C)C)C(=O)N[C@@H](CCC(=O)O)C(=O)N[C@@H](C)C(=O)NCC(=O)NCC(=O)O)C(C)C)C(=O)O [MEDI0382]
pH impact on secondary structure [4]: increases α-helix in alkaline conditions (7 to 8) | pH impact on aggregation kinetics: lag time ([5]; pH 8): kinetics (higher lag time at pH 8 (93 hours), | Z-average values (DLS) [7]: increased sharply over the month at all temperatures, except at −80 °C

SMILES: Cc1cccc(O)c1 [meta-cresol]
m-cresol concentration required for a log reduction consistently greater than 3 at 24 hours [9]: ≥ 0.28 % (w/v) | minimum meta-cresol needed to achieve Ph. Eur. Criteria A [1]: ≥ 0.34 % (w/v) | minimum meta-cresol needed to consistently achieve Ph. Eur. Criteria B [1]: ≥ 0.27 % (w/v) | m-cresol concentration at which USP and EP criteria A are consistently met for all microorganisms except Staphylococcus aureus (EP criteria B met) ([1]; 5.5 mg/mL MEDI0382 multi-dose formulation): ≥ 0.24 % (w/v)

SMILES: Oc1ccccc1 [phenol]
phenol concentration needed to achieve the less stringent European (“B”) criteria ([1]; with 1 mg/mL MEDI0382): at least 0.44 % w/v | phenol concentration needed to achieve the less stringent European (“B”) criteria ([1]; with 2 mg/mL MEDI0382): at least 0.54 % w/v

From patent US20230159606A1, “PHARMACEUTICAL COMPOSITIONS FOR GLUCAGON AND GLP-1 CO-AGONIST PEPTIDES” (MEDIMMUNE LIMITED, priority 2019, published 2023)
